How the values were obtained:
[1] = biological target: T1, full length (FL) LXRβ (Homo sapiens, UniProt P55055, DUP175-175); test: LXR Gal4 reporter transient transfection assay (FL-M2H Gal4β); type: cell-based; details: HEK293 cells, full length LXRβ; read-out: FL-M2H Gal4β (EC50 range)
T1 construct: the full length (FL) proteins of LXRα (amino acids 1-447); NP005684; NP009052; expressed in transfected cells; host or cells: HEK293
T1 sequence (P55055 with tags, fused parts or gaps DUP175-175): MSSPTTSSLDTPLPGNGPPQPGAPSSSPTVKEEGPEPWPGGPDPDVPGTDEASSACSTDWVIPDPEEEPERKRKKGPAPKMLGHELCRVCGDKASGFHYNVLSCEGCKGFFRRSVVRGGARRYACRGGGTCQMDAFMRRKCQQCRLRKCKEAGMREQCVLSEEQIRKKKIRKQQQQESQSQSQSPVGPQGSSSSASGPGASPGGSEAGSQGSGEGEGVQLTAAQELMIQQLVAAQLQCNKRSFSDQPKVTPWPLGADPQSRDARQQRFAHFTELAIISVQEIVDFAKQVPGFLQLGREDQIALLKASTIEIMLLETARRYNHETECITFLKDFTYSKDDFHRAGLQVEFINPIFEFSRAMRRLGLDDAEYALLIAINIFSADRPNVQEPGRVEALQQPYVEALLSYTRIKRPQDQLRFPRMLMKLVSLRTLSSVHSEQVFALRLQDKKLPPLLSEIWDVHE
Procedure, shortened: (§1)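 Mammalian two-hybrid in HEK293: AD-LXR (FL or LBD) + BD-cofactor (SRC1 coactivator or NCoR corepressor domain), pFR-Luc reporter, pRL-CMV normaliser; PEI transfection. Compound added 4 h later (DMSO ≤0.2% final), 16 h incubation at 37 °C. Firefly/Renilla luminescence measured sequentially in lysate.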

[2] = biological target: T2, LXRβ ligand-binding domain (Homo sapiens, UniProt P55055, DUP175-175); test: TR-FRETβ activity assay (NCoA3 coactivator peptide recruitment); type: biochemical; details: TR-FRET, 1 μM 24(S)-25-epoxycholesterol prestimulation; read-out: FRETβ (EC50 range)
T2 construct: amino acids 156-461; NP009052; made in house; host or cells: E. coli
T2 sequence (P55055 with tags, fused parts or gaps DUP175-175 limits assumed): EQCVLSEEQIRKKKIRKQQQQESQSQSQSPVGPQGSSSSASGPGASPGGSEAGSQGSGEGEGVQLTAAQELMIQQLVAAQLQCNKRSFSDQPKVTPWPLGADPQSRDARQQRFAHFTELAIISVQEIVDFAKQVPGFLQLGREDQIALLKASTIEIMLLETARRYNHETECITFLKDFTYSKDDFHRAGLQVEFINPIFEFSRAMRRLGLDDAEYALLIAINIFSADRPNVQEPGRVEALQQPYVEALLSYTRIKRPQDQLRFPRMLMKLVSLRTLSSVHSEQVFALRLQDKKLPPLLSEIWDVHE
Procedure, shortened: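 Inverse agonism assessed by loss of coactivator recruitment, read as TR-FRET 665/615 nm after 1 h equilibration at 4 °C, in triplicate. Ten-point titration from 50 μM to 0.002 μM against LXRβ LBD (76 nM, GST fusion) prestimulated with 1 μM 24(S)-25-epoxycholesterol, with 400 nM NCoA3 peptide, pH 6.8. Sulfonyl acetic acids kept as 20 mM DMSO stocks with 100 mM TFA.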

[3] = biological target: T3, full length (FL) LXRα (Homo sapiens, UniProt Q13133); test: LXR Gal4 reporter transient transfection assay (FL-M2H Gal4α); type: cell-based; details: HEK293 cells, full length LXRα; read-out: FL-M2H Gal4α (EC50 range)
T3 construct: the full length (FL) proteins of LXRα (amino acids 1-447); NP005684; expressed in transfected cells; host or cells: HEK293
T3 sequence (Q13133 1-447): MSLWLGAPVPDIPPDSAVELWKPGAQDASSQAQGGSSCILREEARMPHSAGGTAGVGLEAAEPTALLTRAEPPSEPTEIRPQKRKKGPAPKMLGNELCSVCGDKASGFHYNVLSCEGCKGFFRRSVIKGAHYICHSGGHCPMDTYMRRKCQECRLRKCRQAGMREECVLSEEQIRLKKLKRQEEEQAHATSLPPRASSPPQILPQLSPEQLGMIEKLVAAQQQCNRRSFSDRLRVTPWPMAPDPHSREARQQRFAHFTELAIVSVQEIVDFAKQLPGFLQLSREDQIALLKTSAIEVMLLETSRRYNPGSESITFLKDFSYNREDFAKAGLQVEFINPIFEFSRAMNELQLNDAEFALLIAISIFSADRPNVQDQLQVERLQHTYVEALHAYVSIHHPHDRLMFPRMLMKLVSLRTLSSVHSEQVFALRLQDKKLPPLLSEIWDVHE
Procedure, shortened: as §1

SMILES	EC50 [1] [µM]	EC50 [2] [µM]	EC50 [3] [µM]
Cc1ccc(S(=O)(=O)n2c(-c3cccc(C4CC4C(=O)O)c3)c(-c3ccsc3C#N)c3cccnc32)cc1 (stereo not drawn) [4/2]	0.1 to 1	1 to 10	0.1 to 1
Cc1ccc(S(=O)(=O)n2c(-c3cccc(N4CC(C(=O)O)C4)c3)c(-c3ccsc3C#N)c3sccc32)cc1 [4/3]	< 0.1	1 to 10	< 0.1
Cc1ccc(S(=O)(=O)n2c(-c3cccc(-c4ccc(CO)c(S(=O)(=O)CC(=O)O)c4)c3)c(-c3ccsc3C#N)c3ccccc32)cc1 [5/1]	0.1 to 1	0.1 to 1	1 to 10
Cc1ccc(S(=O)(=O)n2c(-c3cccc(C45CC(C(=O)O)(C4)C5)c3)c(-c3ccsc3C#N)c3ccccc32)cc1 [5/2]	0.1 to 1	0.1 to 1	0.1 to 1
Cc1ccc(S(=O)(=O)n2c(-c3cccc(C#CC(C)(C)C(=O)O)c3)c(-c3ccsc3C#N)c3cc(F)ccc32)cc1 [5/4]	< 0.1	1 to 10	0.1 to 1
Cc1ccc(S(=O)(=O)n2c(-c3cccc(-n4ccc(C(=O)O)cc4=O)c3)c(-c3ccsc3C#N)c3cc(F)ccc32)cc1 [5/5]	0.1 to 1	0.1 to 1	0.1 to 1
Cc1ccc(S(=O)(=O)n2c(-c3ccnc(-c4ccc(C(=O)O)cc4)c3)c(-c3ccsc3C#N)c3cc(F)ccc32)cc1 [5/6]	< 0.1	0.1 to 1	< 0.1
N#Cc1sccc1-c1c(-c2cccc(N3CC(C(=O)O)C3)c2)n(S(=O)(=O)c2ccc(Cl)cc2)c2ccc(F)cc12 [5/7]	< 0.1	0.1 to 1	0.1 to 1
COc1ccc(S(=O)(=O)n2c(-c3cccc(N4CC(C(=O)O)C4)c3)c(-c3ccsc3C#N)c3cc(F)ccc32)cn1 [5/8]	0.1 to 1	0.1 to 1	0.1 to 1
Cc1ccc(S(=O)(=O)n2c(-c3cccc(N4CC[C@@H](C(=O)O)C[C@H]4C)c3)c(-c3ccsc3C#N)c3cc(F)ccc32)cc1 [5/9]	< 0.1	0.1 to 1	0.1 to 1
O=C(O)c1ccc(-c2cccc(-c3c(-c4ncccc4N4CC(O)C4)c4cc(F)ccc4n3S(=O)(=O)c3ccc(C(F)F)cc3)c2)c(Cl)c1 [5/10]	0.1 to 1	1 to 10	0.1 to 1
N#Cc1sccc1-c1c(-c2cccc(C3CC3C(=O)NO)c2)n(S(=O)(=O)c2ccc(Cl)cc2)c2ccccc12 (stereo not drawn) [6/1]	< 0.1	0.1 to 1	< 0.1
CC(C)(C)OC(=O)CNC(=O)c1ccc(-c2cccc(-c3c(-c4c(C#N)cccc4C#N)c4cc(F)ccc4n3S(=O)(=O)c3ccc(C(F)F)cc3)c2)c(Cl)c1 [6/3]	< 0.1	< 0.1	< 0.1
Cc1ccc(S(=O)(=O)n2c(-c3cccc(-c4ccc(CN(C)C)cc4)c3)c(-c3ccsc3C#N)c3cc(F)ccc32)cc1 [8/1]	< 0.1	0.1 to 1	< 0.1
O=C(O)c1ccc(-c2cccc(-c3c(-c4ccccc4C4COC4)c4cnccc4n3S(=O)(=O)c3ccc(C(F)F)cc3)c2)c(Cl)c1 [8/3]	< 0.1	0.1 to 1	0.1 to 1
N#Cc1ccccc1-c1c(-c2cccc(-c3ccc(C(=O)O)cc3Cl)c2)n(S(=O)(=O)c2ccc(C(F)F)cc2)c2cccnc12 [8/7]	< 0.1	0.1 to 1	0.1 to 1
N#Cc1sccc1-c1c(-c2cccc(-c3ccc(C(=O)NCCS(=O)(=O)O)cc3Cl)c2)n(S(=O)(=O)c2ccc(C(F)F)cc2)c2ccc(F)cc12 [10/3]	< 0.1	< 0.1	< 0.1

SMILES	EC50 [1] [µM]	EC50 [2] [µM]	EC50 [3] [µM]
O=C(NCCS(=O)(=O)O)C1CC1c1cccc(-c2c(-c3c(Cl)cccc3Cl)c3cc(F)ccc3n2S(=O)(=O)c2ccc(C(F)F)cc2)c1 (stereo not drawn) [10/4]	< 0.1	< 0.1	0.1 to 1
Cc1ccc(S(=O)(=O)n2c(-c3cccc(-c4ccc(C(=O)O)cc4Cl)c3)c(-c3cccc(F)c3C#N)c3cc(F)ccc32)cc1 [11/1]	< 0.1	< 0.1	< 0.1
Cc1ccc(S(=O)(=O)n2c(-c3cccc(-c4ccc(C(=O)O)cc4Cl)c3)c(-c3cccc(C)c3C#N)c3cc(F)ccc32)cc1 [11/2]	< 0.1	< 0.1	< 0.1
COc1cccc(-c2c(-c3cccc(-c4ccc(C(=O)O)cc4Cl)c3)n(S(=O)(=O)c3ccc(C)cc3)c3ccc(F)cc23)c1C#N [11/3]	< 0.1	< 0.1	< 0.1
Cc1ccc(S(=O)(=O)n2c(-c3cccc(-c4ccc(C(=O)O)cc4Cl)c3)c(-c3ccc(C)cc3C#N)c3cc(F)ccc32)cc1 [11/4]	< 0.1	0.1 to 1	< 0.1
Cc1ccc(S(=O)(=O)n2c(-c3cccc(-c4ccc(C(=O)O)cc4Cl)c3)c(-c3cc(C)ccc3C#N)c3cc(F)ccc32)cc1 [11/5]	< 0.1	< 0.1	< 0.1
Cc1ccc(S(=O)(=O)n2c(-c3cccc(-c4ccc(C(=O)O)cc4Cl)c3)c(-c3c(C)cccc3C#N)c3cc(F)ccc32)cc1 [11/6]	< 0.1	< 0.1	< 0.1
N#Cc1sccc1-c1c(-c2cccc(-c3cc(F)c(C(=O)O)cc3Cl)c2)n(S(=O)(=O)c2ccc(CF)cc2)c2ccc(F)cc12 [11/7]	< 0.1	< 0.1	< 0.1
N#Cc1sccc1-c1c(-c2cccc(-c3cc(F)c(C(=O)O)cc3Cl)c2)n(S(=O)(=O)c2ccc(C(F)F)cc2)c2ccc(F)cc12 [11/8]	< 0.1	< 0.1	< 0.1
N#Cc1scnc1-c1c(-c2cccc(-c3cc(F)c(C(=O)O)cc3Cl)c2)n(S(=O)(=O)c2ccc(C(F)F)cc2)c2ccc(F)cc12 [11/9]	< 0.1	< 0.1	< 0.1
N#Cc1ccncc1-c1c(-c2cccc(-c3cc(F)c(C(=O)O)cc3Cl)c2)n(S(=O)(=O)c2ccc(C(F)F)cc2)c2ccc(F)cc12 [11/10]	< 0.1	< 0.1	< 0.1
Cc1cccc(C)c1-c1c(-c2cccc(-c3ccc(C(=O)O)cc3Cl)c2)n(S(=O)(=O)c2ccc(C(F)F)cc2)c2ccc(F)cc12 [11/14]	< 0.1	< 0.1	< 0.1
O=C(O)c1ccc(-c2cccc(-c3c(-c4c(C(F)F)cccc4C(F)F)c4cc(F)ccc4n3S(=O)(=O)c3ccc(C(F)F)cc3)c2)c(Cl)c1 [11/15]	< 0.1	< 0.1	< 0.1
N#Cc1sccc1-c1c(-c2cccc(-c3ccc(C(=O)O)cc3Cl)c2)n(S(=O)(=O)c2ccc(F)cc2)c2ccc(F)cc12 [11/18]	< 0.1	0.1 to 1	< 0.1
Cc1ccc(S(=O)(=O)n2c(-c3cccc(-c4ccc(C(=O)O)cc4Cl)c3)c(-c3ccsc3C#N)c3cc(F)ccc32)cc1F [11/19]	< 0.1	0.1 to 1	< 0.1
N#Cc1ccc(S(=O)(=O)n2c(-c3cccc(-c4ccc(C(=O)O)cc4Cl)c3)c(-c3ccsc3C#N)c3cc(F)ccc32)cc1 [11/20]	< 0.1	0.1 to 1	< 0.1
O=C(O)c1ccc(-c2cccc(-c3c(-c4ccsc4C(F)F)c4cc(F)ccc4n3S(=O)(=O)c3ccc(Cl)cc3)c2)c(Cl)c1 [11/21]	< 0.1	< 0.1	< 0.1
